Columns and labels:
Assay type in all cases: biochemical
PTP1B = target: T1, PTP1B (Homo sapiens, UniProt P18031); assay: PTP inhibition assay (pNPP); details: pNPP at Km, pH 7.0, 25° C.
T1 sequence (P18031 1-435): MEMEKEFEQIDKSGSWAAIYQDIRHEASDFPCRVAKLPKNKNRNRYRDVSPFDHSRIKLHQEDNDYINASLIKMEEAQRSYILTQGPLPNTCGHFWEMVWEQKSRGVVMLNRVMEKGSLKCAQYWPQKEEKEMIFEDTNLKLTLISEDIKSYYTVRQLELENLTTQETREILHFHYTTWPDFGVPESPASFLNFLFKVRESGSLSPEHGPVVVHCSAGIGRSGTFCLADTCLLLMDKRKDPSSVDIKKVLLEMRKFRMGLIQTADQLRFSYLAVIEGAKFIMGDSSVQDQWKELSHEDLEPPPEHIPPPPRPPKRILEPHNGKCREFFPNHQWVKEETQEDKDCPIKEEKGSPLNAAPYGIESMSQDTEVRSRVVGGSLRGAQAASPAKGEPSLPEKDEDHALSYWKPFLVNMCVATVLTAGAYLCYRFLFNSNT

LYP = target: T2, LYP (Homo sapiens, UniProt Q9Y2R2); assay: PTP inhibition assay (pNPP); details: pNPP at Km, pH 7.0, 25° C.
T2 sequence (Q9Y2R2 1-807): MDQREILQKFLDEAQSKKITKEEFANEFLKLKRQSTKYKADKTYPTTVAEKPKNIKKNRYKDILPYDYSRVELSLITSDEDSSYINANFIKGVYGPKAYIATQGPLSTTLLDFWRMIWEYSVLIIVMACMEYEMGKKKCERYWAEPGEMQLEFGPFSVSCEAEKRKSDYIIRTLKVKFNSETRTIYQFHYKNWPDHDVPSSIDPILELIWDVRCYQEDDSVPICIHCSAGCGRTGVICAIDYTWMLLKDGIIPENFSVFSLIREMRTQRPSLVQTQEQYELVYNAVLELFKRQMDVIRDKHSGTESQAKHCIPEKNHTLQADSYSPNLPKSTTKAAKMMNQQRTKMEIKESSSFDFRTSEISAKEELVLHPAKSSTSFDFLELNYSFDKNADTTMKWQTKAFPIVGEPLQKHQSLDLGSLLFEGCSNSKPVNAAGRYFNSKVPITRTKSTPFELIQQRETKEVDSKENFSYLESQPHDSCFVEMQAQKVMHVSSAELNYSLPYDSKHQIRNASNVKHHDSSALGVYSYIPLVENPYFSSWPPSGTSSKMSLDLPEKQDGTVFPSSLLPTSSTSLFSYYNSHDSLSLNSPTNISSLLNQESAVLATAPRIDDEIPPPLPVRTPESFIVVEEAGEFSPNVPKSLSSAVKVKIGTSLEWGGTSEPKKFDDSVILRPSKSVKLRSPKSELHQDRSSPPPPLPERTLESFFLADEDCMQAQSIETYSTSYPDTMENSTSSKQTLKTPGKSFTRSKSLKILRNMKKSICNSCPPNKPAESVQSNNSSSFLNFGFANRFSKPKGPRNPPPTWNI

SHP2 = target: T3, SHP2 (Homo sapiens, UniProt Q06124); assay: SHP2 phosphatase inhibition assay (pNPP); details: pNPP at Km, pH 7.0, 25° C.; read-out: IC50 SHP2
T3 sequence (Q06124 224-528): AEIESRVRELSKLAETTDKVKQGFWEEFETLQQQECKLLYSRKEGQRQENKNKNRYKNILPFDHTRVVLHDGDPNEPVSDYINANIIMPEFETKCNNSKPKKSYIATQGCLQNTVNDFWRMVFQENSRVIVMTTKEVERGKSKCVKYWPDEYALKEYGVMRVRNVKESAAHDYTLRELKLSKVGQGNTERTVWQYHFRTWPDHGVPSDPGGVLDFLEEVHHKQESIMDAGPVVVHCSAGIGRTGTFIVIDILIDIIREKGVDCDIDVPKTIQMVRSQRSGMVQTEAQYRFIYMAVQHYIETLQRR

Laforin = target: T4, Laforin (Homo sapiens, UniProt O95278); assay: PTP inhibition assay (pNPP); details: pNPP at Km, pH 7.0, 25° C.; read-out: IC50 Laforin
T4 sequence (O95278 1-331): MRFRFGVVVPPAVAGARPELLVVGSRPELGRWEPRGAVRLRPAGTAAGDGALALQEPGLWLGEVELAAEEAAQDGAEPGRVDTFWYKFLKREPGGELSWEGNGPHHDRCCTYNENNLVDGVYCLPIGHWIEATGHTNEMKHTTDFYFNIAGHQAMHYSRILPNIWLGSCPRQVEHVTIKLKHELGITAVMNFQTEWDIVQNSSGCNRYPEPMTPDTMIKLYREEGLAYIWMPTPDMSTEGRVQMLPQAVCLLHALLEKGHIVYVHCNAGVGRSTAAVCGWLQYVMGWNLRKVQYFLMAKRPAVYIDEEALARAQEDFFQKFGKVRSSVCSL

LMWPTP = target: T5, LMWPTP (Homo sapiens, UniProt P24666); assay: PTP inhibition assay (pNPP); details: pNPP at Km, pH 7.0, 25° C.
T5 sequence (P24666 1-158): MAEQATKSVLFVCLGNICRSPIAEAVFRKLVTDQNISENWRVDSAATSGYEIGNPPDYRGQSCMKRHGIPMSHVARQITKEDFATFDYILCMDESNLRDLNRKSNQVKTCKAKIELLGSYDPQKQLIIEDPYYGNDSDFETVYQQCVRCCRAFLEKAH

CD45 = target: T6, CD45 (Homo sapiens, UniProt P08575); assay: PTP inhibition assay (pNPP); details: pNPP at Km, pH 7.0, 25° C.
T6 sequence (P08575 26-1306): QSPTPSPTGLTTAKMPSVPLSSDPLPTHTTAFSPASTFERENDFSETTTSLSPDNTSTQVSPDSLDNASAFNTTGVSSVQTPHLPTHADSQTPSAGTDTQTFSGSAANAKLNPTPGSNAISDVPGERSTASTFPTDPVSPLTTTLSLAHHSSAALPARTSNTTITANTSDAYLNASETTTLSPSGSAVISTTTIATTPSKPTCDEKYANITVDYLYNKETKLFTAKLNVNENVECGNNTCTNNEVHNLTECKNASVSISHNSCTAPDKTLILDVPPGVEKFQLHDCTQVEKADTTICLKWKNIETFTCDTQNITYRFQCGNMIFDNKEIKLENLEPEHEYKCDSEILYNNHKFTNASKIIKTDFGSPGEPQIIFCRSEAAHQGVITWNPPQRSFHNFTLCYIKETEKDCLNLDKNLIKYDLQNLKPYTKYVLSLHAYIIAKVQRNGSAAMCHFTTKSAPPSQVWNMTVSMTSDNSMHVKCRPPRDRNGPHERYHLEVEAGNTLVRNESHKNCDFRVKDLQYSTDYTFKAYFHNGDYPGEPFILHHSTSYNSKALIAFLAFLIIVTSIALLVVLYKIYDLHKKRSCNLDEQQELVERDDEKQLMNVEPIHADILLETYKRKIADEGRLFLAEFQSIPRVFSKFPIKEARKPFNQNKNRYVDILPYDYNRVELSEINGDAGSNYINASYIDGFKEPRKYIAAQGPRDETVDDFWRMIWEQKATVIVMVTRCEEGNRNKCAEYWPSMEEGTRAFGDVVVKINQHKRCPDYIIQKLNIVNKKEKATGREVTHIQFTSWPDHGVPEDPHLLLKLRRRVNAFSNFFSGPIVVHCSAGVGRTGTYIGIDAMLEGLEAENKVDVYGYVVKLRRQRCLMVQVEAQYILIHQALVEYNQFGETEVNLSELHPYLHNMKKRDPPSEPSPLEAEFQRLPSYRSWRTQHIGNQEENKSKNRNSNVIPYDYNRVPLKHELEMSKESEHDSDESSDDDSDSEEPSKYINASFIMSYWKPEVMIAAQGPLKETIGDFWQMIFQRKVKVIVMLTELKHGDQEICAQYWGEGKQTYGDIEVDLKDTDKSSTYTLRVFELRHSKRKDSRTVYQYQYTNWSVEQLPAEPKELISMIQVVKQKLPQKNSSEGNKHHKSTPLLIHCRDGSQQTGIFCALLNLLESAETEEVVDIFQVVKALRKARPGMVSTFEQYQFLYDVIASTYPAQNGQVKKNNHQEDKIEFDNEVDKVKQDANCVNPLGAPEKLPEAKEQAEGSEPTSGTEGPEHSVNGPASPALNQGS

Row | SMILES | IC50 (PTP1B) | IC50 (LYP) | IC50 (SHP2) | IC50 (Laforin) | IC50 (LMWPTP) | IC50 (CD45)
1 | Cc1cccc2sc(NC(=O)C(c3ccccc3)S(=O)(=O)O)nc12 (stereo not drawn) [Compound L319N15-02] | > 200 µM | 110 µM | 129 µM | 4 µM | 9.6 µM | > 200 µM
2 | COc1cccc2sc(NC(=O)C(c3ccccc3)S(=O)(=O)O)nc12 (stereo not drawn) [Compound L319N15-03] | > 200 µM | > 200 µM | > 200 µM | 1.2 µM | 7.6 µM | > 200 µM
3 | O=C(Nc1nc2ccccc2s1)C(c1ccc(Br)cc1)S(=O)(=O)O (stereo not drawn) [Compound L319N15-14] | > 200 µM | > 200 µM | > 200 µM | 19 µM | > 200 µM | > 200 µM
4 | COc1ccc2nc(NC(=O)C(c3ccccc3)S(=O)(=O)O)sc2c1 (stereo not drawn) [Compound L319N15-10] | > 200 µM | > 200 µM | > 200 µM | 2.1 µM | 5.8 µM | > 200 µM
5 | O=C(Nc1nc2ccccc2s1)C(c1ccc([N+](=O)[O-])cc1)S(=O)(=O)O (stereo not drawn) [Compound L319N15-16] | > 200 µM | 180 µM | 135 µM | 66 µM | > 200 µM | > 200 µM
6 | O=C(Nc1nc2ccccc2s1)C(c1ccccc1Cl)S(=O)(=O)O (stereo not drawn) [Compound L319N15-18] | > 100 µM | > 100 µM | > 100 µM | 32 µM | > 100 µM | > 100 µM
7 | O=C(Nc1nc(-c2ccccc2)cs1)C(c1ccccc1)S(=O)(=O)O (stereo not drawn) [Compound L319N14] | 160 µM | 15 µM | 31 µM | 6 µM | 20 µM | 70 µM
8 | Nc1ccc2nc(NC(=O)C(c3ccccc3)S(=O)(=O)O)sc2c1 (stereo not drawn) [Compound L319N15-12] | > 200 µM | 166 µM | 190 µM | 3.3 µM | 14 µM | 160 µM
9 | O=C(Nc1nc2ccc(OC(F)(F)F)cc2s1)C(c1ccccc1)S(=O)(=O)O (stereo not drawn) [Compound L319N15-09] | 160 µM | 20 µM | 47 µM | 3.2 µM | 5.3 µM | 80 µM

Source: patent US10494332B2, “Protein tyrosine phosphatases or SHP2 inhibitors and uses thereof” (Indiana University Research and Technology Corporation, priority 2015, dated 2019)
